# Assay results published in patent publication EP0163537A1, “1-Propanone derivatives and pharmaceutical compositions containing same” (priority 1984, dated 1985).
# Structures can show the parent of a compound that is named as a salt. Where two headings read alike, the source gives them in different places.
# Legend:
# Assay type in all cases: in vivo
# [1] = system: Male mice of ddY strain; test: Test 2 Anti-tremorine activity (inhibition of tremorine-induced tremor); conditions: for responders at 50 mg/kg: Mus musculus, po, read-out: Inhibition of tremor (%)
# Procedure: Male mice of ddY strain, weighing 28 to 32 g, were used in groups of eight or ten. The test compounds were dissolved in distilled water and administered orally in a dose of 50 mg/kg. After 30 minutes, tremorine dihydrochloride was subcutaneously administered in a dose of 20 mg/kg. Then, the occurrence of tremor was observed after the lapse of 30 and 60 minutes.
# [2] = system: Male mice of ddY strain; test: Test 1 Anti-nicotine activity (inhibition of nicotine-induced convulsive death); conditions: 200 mg/kg po, nicotine 2 mg/kg iv after 1 h, observed 1 h; for responders at 200 mg/kg: Mus musculus
# Procedure: Male mice of ddY strain, weighing 28 to 33 g, were used in groups of eight or twelve. The test compounds were dissolved in distilled water and administered orally in a dose of 200 mg/kg. After an hour, nicotine was intravenously administered in a dose of 2 mg/kg.
# [3] = system: Male mice of ddY strain; test: Test 3 Muscle relaxant activity (traction test, method of Courvoisier et al.); conditions: 15 minutes after administration, groups of ten
# Procedure: Male mice of ddY strain, weighing 30 to 37 g, were used in groups of ten. The test compounds were dissolved in physiological saline and administered intraperitoneally in a dose of 50 or 75 mg/kg. […] This method involves a traction test in which the animal is hung by its forelimbs on a horizontal metal rod (2 mm in diameter) placed 20 cm above the floor and examined as to whether it can put its hindlimb on the rod or not.
# Specifically, 15 minutes after administration of a test compound, the mouse was hung on the rod by its forelimbs. […] It had been confirmed in preliminary tests that, under normal conditions, all the mice could put their hindlimb on the rod within 5 seconds.
# [4] = Test 5 Acute toxicity (LD50, method of Behrens and Kärbar); conditions: mouse, in vivo, po, mice, observed for 7 days
# Procedure: Male mice of ddY strain, weighing 25 to 30 g, were used in groups of five. The test compounds were dissolved in distilled water and administered orally in various doses. […] Then, the LDso was calculated according to the method of Behrens and Kärbar.
# [5] = 0.5 h, Table-3b, 50 mg/kg po, After 30 min., 10 animals used
# [6] = 1 h, Table-3b, 50 mg/kg po, After 60 min., 10 animals used
# [7] = 0.5 h, Table-3a, 50 mg/kg po, After 30 min. from tremorine 20 mg/kg sc, 8 animals used
# [8] = 1 h, Table-3a, 50 mg/kg po, After 60 min. from tremorine 20 mg/kg sc, 8 animals used
# [9] = po, 1 h, Table-2a, 8 animals used
# [10] = 0.5 h, Table-3d, 50 mg/kg po, After 30 min., 10 animals used
# [11] = 1 h, Table-3d, 50 mg/kg po, After 60 min., 10 animals used
# [12] = po, 1 h, Table-2c, 12 animals used
compound,measurement,setting,value
"Cl.O=C(c1ccc(C2CC2)cc1)C(CN1CCCCC1)C1CCCC1 (centres unmarked) [Example 37, 2-Cyclopentyl-1-(4-cyclopropylphenyl)-3-piperidino-1-propanone hydrochloride]",responders at 50 mg/kg,[1]; [5],80%
same,responders at 50 mg/kg,[1]; [6],80%
same,Number of animals exhibiting no tremor,"[1]; Table-3b, 50 mg/kg po, After 30 min., 10 animals used",8
same,Number of animals exhibiting no tremor,"[1]; Table-3b, 50 mg/kg po, After 60 min., 10 animals used",8
"CCC(CN1CCCCC1)C(=O)c1ccc(C2CC2)cc1.Cl (centres unmarked) [Example 11, 1-(4-Cyclopropylphenyl)-2-ethyl-3-piperidino-1-propanone hydrochloride]",responders at 50 mg/kg,[1]; [7],100%
same,responders at 50 mg/kg,[1]; [8],100%
same,Number of animals exhibiting no tremor,"[1]; Table-3a, 50 mg/kg po, After 30 min. from tremorine 20 mg/kg sc, 8 animals used",8
same,Number of animals exhibiting no tremor,"[1]; Table-3a, 50 mg/kg po, After 60 min. from tremorine 20 mg/kg sc, 8 animals used",8
same,responders at 200 mg/kg,[2]; [9],37.5%
same,Number of surviving animals,"[2]; Table-2a, 8 animals used",3
"CCCC(CN1CCCCC1)C(=O)c1ccc2c(c1)CCO2.Cl (centres unmarked) [Example 99, 1-(2,3-Dihydro-5-benzofuranyl)-2-n-propyl-3-piperidino-1-propanone hydrochloride]",responders at 50 mg/kg,[1]; [10],100%
same,responders at 50 mg/kg,[1]; [11],90%
same,Number of animals exhibiting muscle relaxation,"[3]; Table-4d, 75 mg/kg ip",2
same,responders at 200 mg/kg,[2]; [12],25%
same,Number of surviving animals,"[2]; Table-2c, 12 animals used",3
"CCc1ccc(C(=O)C(C)CN2CCCCC2)cc1 (centres unmarked) [Eperisone HCl, Eperisone, reference compound]",responders at 50 mg/kg,[1]; [7],87.5%
same,responders at 50 mg/kg,[1]; [5],80%
same,responders at 50 mg/kg,[1]; [10],80%
same,responders at 50 mg/kg,[1]; [8],0%
same,responders at 50 mg/kg,[1]; [6],10%
same,responders at 50 mg/kg,[1]; [11],20%
same,LD50 at 168 h,[4]; Table-5a,595 mg/kg
same,LD50 at 168 h,[4]; Table-5b,475 mg/kg
same,LD50 at 168 h,[4]; Table-5c,565 mg/kg
same,Number of animals exhibiting muscle relaxation,"[3]; Table-4a, 50 mg/kg ip",2
same,Number of animals exhibiting muscle relaxation,"[3]; Table-4d, 75 mg/kg ip",2
same,responders at 200 mg/kg,[2]; [9],50%
same,responders at 200 mg/kg,"[2]; po, 1 h, Table-2b, 12 animals used",50%
same,responders at 200 mg/kg,[2]; [12],50%
"CC(CN1CCCCC1)C(=O)c1ccc(C2CCCC2)cc1.Cl (centres unmarked) [Example 41, 1-(4-Cyclopentylphenyl)-2-methyl-3-piperidino-1-propanone hydrochloride]",responders at 50 mg/kg,[1]; [7],75%
same,responders at 50 mg/kg,[1]; [8],12.5%
same,responders at 200 mg/kg,[2]; [9],37.5%
same,Number of surviving animals,"[2]; Table-2a, 8 animals used",3
"CC(CN1CCCCCC1)C(=O)c1ccc(C2CC2)cc1.Cl (centres unmarked) [Example 9, 1-(4-Cyclopropylphenyl)-2-methyl-3-(hexahydro-1H-azepin-1-yl)-1-propanone hydrochloride]",responders at 50 mg/kg,[1]; [7],100%
same,responders at 50 mg/kg,[1]; [8],87.5%
same,LD50 at 168 h,[4]; Table-5a,655 mg/kg
same,Number of animals exhibiting muscle relaxation,"[3]; Table-4a, 50 mg/kg ip",7
same,responders at 200 mg/kg,[2]; [9],75%
same,Number of surviving animals,"[2]; Table-2a, 8 animals used",6
"CC(CN1CCCC1)C(=O)c1ccc(C2CC2)cc1.Cl (centres unmarked) [Example 8, 1-(4-Cyclopropylphenyl)-2-methyl-3-(1-pyrrolidinyl)-1-propanone hydrochloride]",responders at 50 mg/kg,[1]; [7],100%
same,responders at 50 mg/kg,[1]; [8],87.5%
same,LD50 at 168 h,[4]; Table-5a,505 mg/kg
same,Number of animals exhibiting muscle relaxation,"[3]; Table-4a, 50 mg/kg ip",7
same,responders at 200 mg/kg,[2]; [9],62.5%
same,Number of surviving animals,"[2]; Table-2a, 8 animals used",5
"CCC(CN1CCCC1)C(=O)c1ccc2c(c1)CCO2.Cl (centres unmarked) [Example 95, 1-(2,3-Dihydro-5-benzofuranyl)-2-ethyl-3-(1-pyrrolidinyl)-1-propanone hydrochloride]",responders at 50 mg/kg,[1]; 0.5 h,100%
same,responders at 50 mg/kg,[1]; 1 h,100%
same,Number of animals exhibiting no tremor,"[1]; Table-3d, 50 mg/kg po, After 30 min., 10 animals used",10
same,Number of animals exhibiting no tremor,"[1]; Table-3d, 50 mg/kg po, After 60 min., 10 animals used",10
same,responders at 200 mg/kg,"[2]; Table-2c, 12 animals used",16.7%
same,Number of surviving animals,"[2]; Table-2c, 12 animals used",2
"CC(CN1CCCC1)C(=O)c1ccc2c(c1)OCO2 (centres unmarked) [Example 60, 2-Methyl-1-(3,4-methylenedioxyphenyl)-3-(1-pyrrolidi-nyl)-1-propanone hydrochloride]",responders at 200 mg/kg,"[2]; Table-2b, 12 animals used",58.3%
same,Number of surviving animals,"[2]; Table-2b, 12 animals used",7
